Results reported in paper PMC8766756, “Insights on Cancer Cell Inhibition, Subcellular Activities, and Kinase Profile of Phenylacetamides Pending 1H-Imidazol-5-One Variants” (Frontiers in Pharmacology, 2022).

Target: T1, EphA1 (P21709) (Homo sapiens, UniProt P21709)
T1 construct: purchased PamGene (PamChip PTK array, Upstream Kinase Analysis)
T1 sequence (P21709 26-976): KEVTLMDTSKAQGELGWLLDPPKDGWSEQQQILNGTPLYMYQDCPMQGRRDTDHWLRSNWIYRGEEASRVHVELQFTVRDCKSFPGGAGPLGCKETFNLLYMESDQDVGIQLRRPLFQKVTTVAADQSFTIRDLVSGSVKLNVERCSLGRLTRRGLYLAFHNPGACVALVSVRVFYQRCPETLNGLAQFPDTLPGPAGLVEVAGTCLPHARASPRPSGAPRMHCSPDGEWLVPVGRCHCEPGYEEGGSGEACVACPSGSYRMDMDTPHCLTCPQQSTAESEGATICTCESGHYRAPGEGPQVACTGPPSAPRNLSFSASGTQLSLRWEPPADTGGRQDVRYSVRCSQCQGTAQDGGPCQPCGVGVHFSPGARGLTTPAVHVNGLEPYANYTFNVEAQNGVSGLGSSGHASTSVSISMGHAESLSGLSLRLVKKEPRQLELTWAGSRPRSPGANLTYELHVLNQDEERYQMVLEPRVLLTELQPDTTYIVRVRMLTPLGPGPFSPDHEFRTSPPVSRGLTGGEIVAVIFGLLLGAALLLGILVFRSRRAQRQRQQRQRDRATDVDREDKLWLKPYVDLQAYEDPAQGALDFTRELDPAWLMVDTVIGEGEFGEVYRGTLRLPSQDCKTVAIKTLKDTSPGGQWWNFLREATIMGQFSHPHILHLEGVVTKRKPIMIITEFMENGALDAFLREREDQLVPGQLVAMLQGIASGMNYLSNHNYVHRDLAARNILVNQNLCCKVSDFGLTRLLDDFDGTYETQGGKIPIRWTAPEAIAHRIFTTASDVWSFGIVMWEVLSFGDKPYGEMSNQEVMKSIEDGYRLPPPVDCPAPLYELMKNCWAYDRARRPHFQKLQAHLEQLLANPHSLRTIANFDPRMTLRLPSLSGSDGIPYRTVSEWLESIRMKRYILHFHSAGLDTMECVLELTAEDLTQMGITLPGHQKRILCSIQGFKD
Assay: PamChip tyrosine kinase microarray
Format: biochemical
Settings: 0.1 µM, HL60 lysate
Method in brief: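 HL60 (AML) cell lysate was spiked with compound at 0.001, 0.01, 0.1, 1, 10 and 50 µM, or 2% v/v DMSO as control, then profiled in technical replicates on a tyrosine kinase peptide array of 196 phosphosites. Kinase activity was inferred from peptide-set changes using an upstream kinase tool.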

## COc1ccc(/C=C2\N=C(C)N(c3ccc(CC(=O)NCc4ccccc4)cc3)C2=O)cc1 [Compound 4c, (Z)-N-Benzyl-2-(4-(4-(4-methoxybenzylidene)-2-methyl-5-oxo-4,5-dihydro-1H-imidazol-1-yl)phenyl)acetamide]
  Mean Final score (Kinase score): 2.326
  Mean Kinase Statistic: -1.184
  Mean Significance Score: 1.983
  Mean Specificity Score: 0.3263
